From patent US20160122320A1, “USEFUL COMBINATIONS OF MONOBACTAM ANTIBIOTICS WITH BETA-LACTAMASE INHIBITORS” (Basilea Pharmaceutica AG, priority 2005, published 2016)
Counter-ions that a name gives are not always drawn.

How the values were obtained:
Assay in all cases: MIC, NCCLS broth microdilution
Type in all cases: cell-based
[1] = system: Stenotrophomonas malthophilia 1AC736; settings: for MIC of antibiotic / MIC of antibiotic at fixed inhibitor concentration of 4 mg/L: Stenotrophomonas maltophilia 1AC736; for MIC of antibiotic: antibiotic alone, no inhibitor; for MIC of antibiotic at fixed inhibitor concentration (4 mg/L): Stenotrophomonas malthophilia 1AC736, MIC of antibiotic compound 1 with the labelled bridged monobactam of formula II and clavulanate, 4 mg/L each
Acinetobacter sp. J2 = settings: for MIC of antibiotic / MIC of antibiotic at fixed inhibitor concentration of 4 mg/L: Acinetobacter baumannii J2; for MIC of antibiotic: antibiotic alone, no inhibitor; for MIC of antibiotic at fixed inhibitor concentration (4 mg/L): Acinetobacter sp. J2, MIC of antibiotic compound 1 with the labelled bridged monobactam of formula II and clavulanate, 4 mg/L each
Enterobacter cloacae P99 = settings: for MIC of antibiotic: antibiotic alone, no inhibitor; for MIC of antibiotic at fixed inhibitor concentration (4 mg/L): MIC of antibiotic compound 1 with the labelled bridged monobactam of formula II and clavulanate, 4 mg/L each
[2] = system: Pseudomonas aeruginosa 1973E; settings: for MIC of antibiotic: antibiotic alone, no inhibitor; for MIC of antibiotic at fixed inhibitor concentration (4 mg/L): MIC of antibiotic compound 1 with the labelled bridged monobactam of formula II and clavulanate, 4 mg/L each
Method in brief: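 MIC read by eye as the lowest concentration giving no visible growth after overnight incubation (30° C. or 37° C.), following NCCLS M7-A5 microdilution with ≤1% final DMSO. For combinations, partner compounds (formula II, III-XIII) were fixed at 4 μg/mL each while formula I compounds were titrated.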

[3] = system: Pseudomonas aeruginosa MK1184; settings: for MIC of antibiotic: antibiotic alone, no inhibitor; for MIC of antibiotic at fixed inhibitor concentration (4 mg/L): MIC of antibiotic compound 1 with the labelled bridged monobactam of formula II and clavulanate, 4 mg/L each
[4] = system: Klebsiella pneumoniae CF104; settings: for MIC of antibiotic: antibiotic alone, no inhibitor; for MIC of antibiotic at fixed inhibitor concentration (4 mg/L): MIC of antibiotic compound 1 with the labelled bridged monobactam of formula II and clavulanate, 4 mg/L each
Serratia marcescens S6 = settings: for MIC of antibiotic: antibiotic alone, no inhibitor; for MIC of antibiotic at fixed inhibitor concentration (4 mg/L): MIC of antibiotic compound 1 with the labelled bridged monobactam of formula II and clavulanate, 4 mg/L each

Row | MIC of antibiotic [1] [µg/mL] | MIC of antibiotic at fixed inhibitor concentration of 4 mg/L ([1]; with 102 and clavulanate) [µg/mL] | MIC of antibiotic (Acinetobacter sp. J2) [µg/mL] | MIC of antibiotic at fixed inhibitor concentration of 4 mg/L (Acinetobacter sp. J2; with 102 and clavulanate) [µg/mL] | MIC of antibiotic (Enterobacter cloacae P99) [µg/mL] | MIC of antibiotic at fixed inhibitor concentration of 4 mg/L (Enterobacter cloacae P99; with 102 and clavulanate) [µg/mL] | MIC of antibiotic [2] [µg/mL] | MIC of antibiotic at fixed inhibitor concentration of 4 mg/L ([2]; with 102 and clavulanate) [µg/mL] | MIC of antibiotic [3] [µg/mL] | MIC of antibiotic at fixed inhibitor concentration of 4 mg/L ([3]; with 102 and clavulanate) [µg/mL] | MIC of antibiotic [4] [µg/mL] | MIC of antibiotic at fixed inhibitor concentration of 4 mg/L ([4]; with 102 and clavulanate) [µg/mL] | MIC of antibiotic (Serratia marcescens S6) [µg/mL] | MIC of antibiotic at fixed inhibitor concentration (4 mg/L) [1] [µg/mL] | MIC of antibiotic at fixed inhibitor concentration (4 mg/L) (Acinetobacter sp. J2) [µg/mL] | MIC of antibiotic at fixed inhibitor concentration (4 mg/L) (Enterobacter cloacae P99) [µg/mL] | MIC of antibiotic at fixed inhibitor concentration (4 mg/L) [2] [µg/mL] | MIC of antibiotic at fixed inhibitor concentration (4 mg/L) [3] [µg/mL] | MIC of antibiotic at fixed inhibitor concentration (4 mg/L) [4] [µg/mL] | MIC of antibiotic at fixed inhibitor concentration (4 mg/L) (Serratia marcescens S6) [µg/mL] | Compound | further results
1 | 4 | 4 | >32 | >32 | >32 | 32 | 8 | 4 | 4 | 2 | >32 | 2 | 8 |  |  |  |  |  |  |  | NC(=O)OC[C@@H]1[C@H](NC(=O)/C(=N\OCc2cc(=O)c(O)cn2O)c2nsc(N)n2)C(=O)N1OS(=O)(=O)O [Compound 48, ((2S,3S)-3-{(2Z)-2-(5-amino(1,2,4-thiadiazol-3-yl))-3-[(1,5-dihydroxy-4-oxo(2-hydropyridyl))methoxy]-3-azaprop-2-enoylamino}-1-(hydroxysulfonyloxy)-4-oxoazetidin-2-yl)methyl aminooate] | MIC of antibiotic at fixed inhibitor concentration of 4 mg/L ([1]; with 324 and clavulanate): 2 µg/mL; MIC of antibiotic at fixed inhibitor concentration of 4 mg/L (Acinetobacter sp. J2; with 324 and clavulanate): >32 µg/mL; MIC of antibiotic at fixed inhibitor concentration of 4 mg/L (Enterobacter cloacae P99; with 324 and clavulanate): 16 µg/mL; MIC of antibiotic at fixed inhibitor concentration of 4 mg/L ([2]; with 324 and clavulanate): 8 µg/mL; MIC of antibiotic at fixed inhibitor concentration of 4 mg/L ([3]; with 324 and clavulanate): 2 µg/mL; MIC of antibiotic at fixed inhibitor concentration of 4 mg/L ([4]; with 324 and clavulanate): 4 µg/mL; MIC of antibiotic at fixed inhibitor concentration of 4 mg/L (Serratia marcescens S6; with 102 and clavulanate): 2 µg/mL; MIC of antibiotic at fixed inhibitor concentration of 4 mg/L (Serratia marcescens S6; with 324 and clavulanate): 2 µg/mL
2 |  |  |  |  |  |  |  |  |  |  |  |  |  | 0.125 | >32 | 32 | 4 | 32 | 0.5 | 2 | O=C(C[n+]1ccc2ccccc2c1)N1CC[C@@H]2[C@H]1C(=O)N2S(=O)(=O)[O-] [Compound 104, (1S,5R)-2-(2-(2-isoquinolinium)acetyl)-7-oxo-2,6-diazabicyclo[3.2.0]heptane-6-sulfonate, inner salt] | 
3 |  |  |  |  |  |  |  |  |  |  |  |  |  | 0.125 | 32 | 32 | 8 | 16 | 0.25 | 0.25 | O=C(C[n+]1cccc(C(F)(F)F)c1)N1CC[C@@H]2[C@H]1C(=O)N2S(=O)(=O)[O-] [Compound 120, (1S,5R)-7-oxo-2-{2-[3-(trifluoromethyl)pyridinium]acetyl}-2,6-diazabicyclo[3.2.0]heptane-6-sulfonate, inner salt] | 
4 | 4 |  | 4 |  | >32 |  | 8 |  | 8 |  | >32 |  | >32 |  |  |  |  |  |  |  | CC1C(NC(=O)C(=NOCc2cc(=O)c(O)cn2O)c2nsc(N)n2)C(=O)N1S(=O)(=O)O (stereo not shown) [Compound 2] | MIC of antibiotic at fixed inhibitor concentration of 4 mg/L ([1]; with 206 and clavulanate): 0.5 µg/mL; MIC of antibiotic at fixed inhibitor concentration of 4 mg/L (Acinetobacter sp. J2; with 206 and clavulanate): 16 µg/mL; MIC of antibiotic at fixed inhibitor concentration of 4 mg/L (Enterobacter cloacae P99; with 206 and clavulanate): 16 µg/mL; MIC of antibiotic at fixed inhibitor concentration of 4 mg/L ([2]; with 206 and clavulanate): 8 µg/mL; MIC of antibiotic at fixed inhibitor concentration of 4 mg/L ([3]; with 206 and clavulanate): 16 µg/mL; MIC of antibiotic at fixed inhibitor concentration of 4 mg/L ([4]; with 206 and clavulanate): 8 µg/mL; MIC of antibiotic at fixed inhibitor concentration of 4 mg/L (Serratia marcescens S6; with 206 and clavulanate): >32 µg/mL
5 |  |  |  |  |  |  |  |  |  |  |  |  |  | 0.125 | >32 | 4 | 4 | >32 | 1 | 0.25 | NC(=O)CNC(=O)c1ccc[n+](CC(=O)N2CC[C@@H]3[C@H]2C(=O)N3S(=O)(=O)[O-])c1 [Compound 108, (1S,5R)-2-(2-{3-[N-(carbamoylmethyl)carbamoyl]pyridinium}acetyl)-7-oxo-2,6-diazabicyclo[3.2.0]heptane-6-sulfonate, inner salt] | 
6 | 8 | 1 | >32 | >32 | >32 | >32 | >32 | 16 | >32 | 32 | >32 | 0.5 | 8 |  |  |  |  |  |  |  | CC1C(NC(=O)C(=NOCc2cc(=O)c(O)cn2O)c2csc(NC=O)n2)C(=O)N1S(=O)(=O)O (stereo not shown) [Compound 28] | MIC of antibiotic at fixed inhibitor concentration of 4 mg/L (Serratia marcescens S6; with 102 and clavulanate): 1 µg/mL
7 |  |  |  |  |  |  |  |  |  |  |  |  |  | 0.125 | >32 | 32 | 4 | >32 | 1 | 0.25 | COc1ccc(NC(=O)N2CC[C@@H]3[C@H]2C(=O)N3S(=O)(=O)[O-])cc1.[Na+] [Compound 304] | 
8 |  |  |  |  |  |  |  |  |  |  |  |  |  | 0.125 | 8 | 32 | 2 | >32 | 4 | 0.5 | NC(C(=O)N1CC[C@@H]2[C@H]1C(=O)N2S(=O)(=O)O)c1ccc(O)c(O)c1 (stereo partly shown) [Compound 403] | 
9 | 8 | 4 | >32 | >32 | 16 | 8 | >32 | >32 | >32 | >32 | >32 | <0.06 | 4 |  |  |  |  |  |  |  | C[C@H]1[C@H](NC(=O)/C(=N\OCc2cc(=O)c(O)cn2C)c2csc(N)n2)C(=O)N1S(=O)(=O)O [Compound 6, (3S,4S)-3-{(2Z)-2-(2-amino(1,3-thiazol-4-yl))-3-[(5-hydroxy-1-methyl-4-oxo(2-hydropyridyl))methoxy]-3-azaprop-2-enoylamino}-4-methyl-2-oxoazetidinesulfonic acid] | MIC of antibiotic at fixed inhibitor concentration of 4 mg/L ([1]; with 206 and clavulanate): 4 µg/mL; MIC of antibiotic at fixed inhibitor concentration of 4 mg/L ([1]; with 315 and clavulanate): 2 µg/mL; MIC of antibiotic at fixed inhibitor concentration of 4 mg/L (Acinetobacter sp. J2; with 206 and clavulanate): 32 µg/mL; MIC of antibiotic at fixed inhibitor concentration of 4 mg/L (Acinetobacter sp. J2; with 315 and clavulanate): >32 µg/mL; MIC of antibiotic at fixed inhibitor concentration of 4 mg/L (Enterobacter cloacae P99; with 206 and clavulanate): 16 µg/mL; MIC of antibiotic at fixed inhibitor concentration of 4 mg/L (Enterobacter cloacae P99; with 315 and clavulanate): 4 µg/mL; MIC of antibiotic at fixed inhibitor concentration of 4 mg/L ([2]; with 206 and clavulanate): >32 µg/mL; MIC of antibiotic at fixed inhibitor concentration of 4 mg/L ([2]; with 315 and clavulanate): >32 µg/mL; MIC of antibiotic at fixed inhibitor concentration of 4 mg/L ([3]; with 206 and clavulanate): >32 µg/mL; MIC of antibiotic at fixed inhibitor concentration of 4 mg/L ([3]; with 315 and clavulanate): >32 µg/mL; MIC of antibiotic at fixed inhibitor concentration of 4 mg/L ([4]; with 206 and clavulanate): 0.5 µg/mL; MIC of antibiotic at fixed inhibitor concentration of 4 mg/L ([4]; with 315 and clavulanate): 0.5 µg/mL; MIC of antibiotic at fixed inhibitor concentration of 4 mg/L (Serratia marcescens S6; with 102 and clavulanate): 0.5 µg/mL; MIC of antibiotic at fixed inhibitor concentration of 4 mg/L (Serratia marcescens S6; with 206 and clavulanate): 4 µg/mL; MIC of antibiotic at fixed inhibitor concentration of 4 mg/L (Serratia marcescens S6; with 315 and clavulanate): 4 µg/mL
10 | 1 | 1 | >32 | >32 | >32 | 16 | 8 | 4 | 4 | 2 | >32 | 4 | 2 |  |  |  |  |  |  |  | NC(=O)OCC1C(NC(=O)C(=NOCc2cc(=O)c(O)cn2O)c2nc(N)sc2Cl)C(=O)N1OS(=O)(=O)O (stereo not shown) [Compound 47] | MIC of antibiotic at fixed inhibitor concentration of 4 mg/L ([1]; with 324 and clavulanate): 1 µg/mL; MIC of antibiotic at fixed inhibitor concentration of 4 mg/L (Acinetobacter sp. J2; with 324 and clavulanate): >32 µg/mL; MIC of antibiotic at fixed inhibitor concentration of 4 mg/L (Enterobacter cloacae P99; with 324 and clavulanate): 32 µg/mL; MIC of antibiotic at fixed inhibitor concentration of 4 mg/L ([2]; with 324 and clavulanate): 8 µg/mL; MIC of antibiotic at fixed inhibitor concentration of 4 mg/L ([3]; with 324 and clavulanate): 4 µg/mL; MIC of antibiotic at fixed inhibitor concentration of 4 mg/L ([4]; with 324 and clavulanate): 2 µg/mL; MIC of antibiotic at fixed inhibitor concentration of 4 mg/L (Serratia marcescens S6; with 102 and clavulanate): 2 µg/mL; MIC of antibiotic at fixed inhibitor concentration of 4 mg/L (Serratia marcescens S6; with 324 and clavulanate): 2 µg/mL
